“And” between values parts separate entries of the source, which are not always exact repeats. Equal entries are not always repeated.
Legend:
[1] = refractive index (Na D-line) (dimensionless); xn = mol fraction of the nth substance listed; details: 101 kPa, Liquid, Standard Abbe refractometry, x2 = 0
[2] = xn = mol fraction of the nth substance listed; details: 101 kPa, Liquid, x2 = 0; for viscosity: Concentric cylinders viscometry; for mass density: Vibrating tube method
[3] = refractive index (Na D-line) (dimensionless); details: 101.33 kPa, Liquid, Standard Abbe refractometry
[4] = 101 kPa, Liquid; for viscosity: Concentric cylinders viscometry; for mass density: Vibrating tube method

CCCCO [butan-1-ol] + CC(O)CN
Details | mass density, [2] [kg/m3] | refractive index, [1] | viscosity, [2] [mPa·s]
288.15 K | 813.353 | 1.4013 | 3.367
293.15 K | 809.564 | 1.3992 | 2.914
298.15 K | 805.752 | 1.3972 | 2.539
303.15 K | 801.912 | 1.3951 | 2.228
308.15 K | 798.039 | 1.393 | 1.962
313.15 K | 794.13 | 1.391 | 1.739
318.15 K | 790.18 | 1.3888 | 1.547
323.15 K | 786.179 | 1.3867 | 1.382
328.15 K | 782.125 | 1.3846 | 1.239
333.15 K | 778.012 | 1.3824 | 1.138

CCCCO [butan-1-ol]
Details | mass density, [4] [kg/m3] | refractive index, [3] | viscosity, [4] [mPa·s]
288.15 K | 813.353 | 1.4013 | 3.367
293.15 K | 809.564 | 1.3992 | 2.914
298.15 K | 805.752 | 1.3972 | 2.539
303.15 K | 801.912 | 1.3951 | 2.228
308.15 K | 798.039 | 1.393 | 1.962
313.15 K | 794.13 | 1.391 | 1.739
318.15 K | 790.18 | 1.3888 | 1.547
323.15 K | 786.179 | 1.3867 | 1.382
328.15 K | 782.125 | 1.3846 | 1.239
333.15 K | 778.012 | 1.3824 | 1.138

CCC(C)O (stereo not given) [butan-2-ol] + CC(O)CN
Details | mass density, [2] [kg/m3] | refractive index, [1] | viscosity, [2] [mPa·s]
288.15 K | 810.524 | 1.3995 | 4.59
293.15 K | 806.487 | 1.3974 | 3.738
298.15 K | 802.373 | 1.3952 | 3.074
303.15 K | 798.174 | 1.393 | 2.552
308.15 K | 793.881 | 1.3907 | 2.144
313.15 K | 789.487 | 1.3883 | 1.818
318.15 K | 784.988 | 1.3859 | 1.558
323.15 K | 780.38 | 1.3835 | 1.348
328.15 K | 775.656 | 1.381 | 1.179
333.15 K | 770.82 | 1.3784 | 1.054

CC(O)CN (stereo not given) [1-amino-2-propanol]
Details | mass density, [4] [kg/m3] | refractive index, [3] | viscosity, [4]
288.15 K | 964.544 | 1.45 | 43.7 mPa·s
293.15 K | 960.598 | 1.448 | 31.68 mPa·s
298.15 K | 956.618 | 1.446 | 23.54 mPa·s
303.15 K | 952.612 | 1.444 | 17.89 mPa·s and 17.9 mPa·s
308.15 K | 948.577 | 1.4419 | 13.88 mPa·s
313.15 K | 944.515 | 1.4399 | 10.96 mPa·s
318.15 K | 940.423 | 1.4378 | 8.798 mPa·s
323.15 K | 936.293 | 1.4358 | 7.166 mPa·s
328.15 K | 932.13 | 1.4337 | 5.915 mPa·s
333.15 K | 927.93 | 1.4315 | 4.986 mPa·s

CCC(C)O (stereo not given) [butan-2-ol]
Details | mass density, [4] [kg/m3] | refractive index, [3] | viscosity, [4] [mPa·s]
288.15 K | 810.524 | 1.3995 | 4.59
293.15 K | 806.487 | 1.3974 | 3.738
298.15 K | 802.373 | 1.3952 | 3.074
303.15 K | 798.174 | 1.393 | 2.552
308.15 K | 793.881 | 1.3907 | 2.144
313.15 K | 789.487 | 1.3883 | 1.818
318.15 K | 784.988 | 1.3859 | 1.558
323.15 K | 780.38 | 1.3835 | 1.348
328.15 K | 775.656 | 1.381 | 1.179
333.15 K | 770.82 | 1.3784 | 1.054
